Assay results published in the NIST ThermoML archive (doi:10.1021/je0499768).

Experiments:
[1] = Crystal
[2] = Molar enthalpy of transition or fusion; conditions: Crystal
[3] = molar heat capacity at saturation pressure

CCCCCO [pentan-1-ol]
Conditions | Molar enthalpy of transition or fusion [kcal/mol] | Triple point temperature [K]
[1] | – | 195.6
[2] | 2.512 | –

[3]
Conditions | molar heat capacity [J/K/mol]
84.35 K, Crystal | 65.89
85.06 K, Crystal | 66.25
86.86 K, Crystal | 67.27
89.74 K, Crystal | 68.87
92.58 K, Crystal | 70.39
94.72 K, Crystal | 71.43
95.39 K, Crystal | 71.74
95.42 K, Crystal | 71.88
97.19 K, Crystal | 72.64
98.27 K, Crystal | 73.33
100.1 K, Crystal | 74.14
101.12 K, Crystal | 74.67
102.99 K, Crystal | 75.73
103.99 K, Crystal | 76.36
105.87 K, Crystal | 77.16
106.86 K, Crystal | 77.84
108.76 K, Crystal | 78.64
109.74 K, Crystal | 79.23
111.65 K, Crystal | 79.96
112.62 K, Crystal | 80.53
114.54 K, Crystal | 81.27
115.51 K, Crystal | 81.81
117.45 K, Crystal | 82.55
118.41 K, Crystal | 83.11
120.35 K, Crystal | 83.59
121.31 K, Crystal | 84.26
123.26 K, Crystal | 85.21
124.22 K, Crystal | 85.78
126.17 K, Crystal | 86.52
127.13 K, Crystal | 87.05
129.09 K, Crystal | 87.81
130.04 K, Crystal | 88.35
132 K, Crystal | 89.11
132.96 K, Crystal | 89.63
134.92 K, Crystal | 90.35
135.88 K, Crystal | 90.9
137.85 K, Crystal | 91.65
138.8 K, Crystal | 92.19
140.77 K, Crystal | 92.89
141.73 K, Crystal | 93.48
143.7 K, Crystal | 94.19
144.65 K, Crystal | 94.77
146.63 K, Crystal | 95.55
147.58 K, Crystal | 96.12
149.56 K, Crystal | 96.87
150.51 K, Crystal | 97.45
152.49 K, Crystal | 98.21
153.44 K, Crystal | 98.8
155.42 K, Crystal | 99.58
156.38 K, Crystal | 100.2
158.36 K, Crystal | 101.02
159.31 K, Crystal | 101.61
161.29 K, Crystal | 102.48
162.24 K, Crystal | 103.05
164.23 K, Crystal | 103.98
165.18 K, Crystal | 104.56
167.16 K, Crystal | 105.55
168.11 K, Crystal | 106.11
170.08 K, Crystal | 107.17
171.04 K, Crystal | 107.72
173.01 K, Crystal | 108.87
173.97 K, Crystal | 109.43
175.94 K, Crystal | 110.7
176.89 K, Crystal | 111.3
178.85 K, Crystal | 112.7
179.8 K, Crystal | 113.33
181.73 K, Crystal | 115.01
182.67 K, Crystal | 115.64
184.57 K, Crystal | 118.07
185.5 K, Crystal | 118.77
187.36 K, Crystal | 123.84
188.28 K, Crystal | 124.56
198.65 K, Liquid | 163.65
199.38 K, Liquid | 163.9
200.99 K, Liquid | 163.99
201.72 K, Liquid | 164.4
203.32 K, Liquid | 164.43
204.05 K, Liquid | 164.85
205.65 K, Liquid | 164.91
206.37 K, Liquid | 165.31
207.96 K, Liquid | 165.4
208.68 K, Liquid | 165.79
210.27 K, Liquid | 165.93
210.99 K, Liquid | 166.35
212.58 K, Liquid | 166.46
213.29 K, Liquid | 166.86
214.87 K, Liquid | 167.08
215.58 K, Liquid | 167.46
217.16 K, Liquid | 167.65
217.86 K, Liquid | 168.06
219.44 K, Liquid | 168.24
220.14 K, Liquid | 168.68
221.71 K, Liquid | 168.88
222.41 K, Liquid | 169.28
223.98 K, Liquid | 169.49
224.67 K, Liquid | 169.98
226.24 K, Liquid | 170.19
226.92 K, Liquid | 170.74
228.49 K, Liquid | 170.97
229.17 K, Liquid | 171.45
230.73 K, Liquid | 171.69
231.4 K, Liquid | 172.08
232.96 K, Liquid | 172.37
233.63 K, Liquid | 172.91
235.19 K, Liquid | 173.18
235.85 K, Liquid | 173.67
237.41 K, Liquid | 174
238.06 K, Liquid | 174.45
239.61 K, Liquid | 174.8
240.27 K, Liquid | 175.24
241.81 K, Liquid | 175.57
242.46 K, Liquid | 176.08
244 K, Liquid | 176.53
244.65 K, Liquid | 177.02
246.19 K, Liquid | 177.41
246.83 K, Liquid | 177.9
248.36 K, Liquid | 178.37
249 K, Liquid | 178.81
250.53 K, Liquid | 179.33
251.16 K, Liquid | 179.81
252.69 K, Liquid | 180.35
253.31 K, Liquid | 180.73
254.84 K, Liquid | 180.78
255.46 K, Liquid | 181.29
256.98 K, Liquid | 181.89
257.6 K, Liquid | 182.33
259.12 K, Liquid | 182.97
259.72 K, Liquid | 183.42
261.25 K, Liquid | 184.11
261.84 K, Liquid | 184.56
263.36 K, Liquid | 185.17
263.95 K, Liquid | 185.84
265.47 K, Liquid | 186.38
266.05 K, Liquid | 186.93
267.57 K, Liquid | 187.55
268.14 K, Liquid | 188.12
269.66 K, Liquid | 188.85
270.23 K, Liquid | 189.24
271.74 K, Liquid | 190.03
272.3 K, Liquid | 190.52
273.81 K, Liquid | 190.93
274.36 K, Liquid | 191.79
275.87 K, Liquid | 192.5
276.41 K, Liquid | 193.06
277.92 K, Liquid | 193.85
278.46 K, Liquid | 194.4
279.97 K, Liquid | 195.18
280.49 K, Liquid | 195.74
282 K, Liquid | 196.61
282.51 K, Liquid | 197.04
284.02 K, Liquid | 197.96
284.53 K, Liquid | 198.45
286.03 K, Liquid | 199.37
286.53 K, Liquid | 199.91
288.04 K, Liquid | 200.78
288.52 K, Liquid | 201.35
290.03 K, Liquid | 202.3
290.5 K, Liquid | 202.81
292.01 K, Liquid | 203.82
292.48 K, Liquid | 204.11
293.99 K, Liquid | 205.24
294.44 K, Liquid | 205.79
295.95 K, Liquid | 206.87
296.39 K, Liquid | 207.42
297.91 K, Liquid | 208.52
298.34 K, Liquid | 208.88
299.85 K, Liquid | 210.01
300.27 K, Liquid | 210.28
300.3 K, Liquid | 209.4
300.6 K, Liquid | 209.89
300.81 K, Liquid | 210.54
301.09 K, Liquid | 210.46
301.72 K, Liquid | 211.03
302.2 K, Liquid | 211.81
303.67 K, Liquid | 212.74
304.12 K, Liquid | 213.39
305.6 K, Liquid | 214.44
306.03 K, Liquid | 215.06
307.52 K, Liquid | 216.02
307.94 K, Liquid | 216.66
309.43 K, Liquid | 217.84
309.83 K, Liquid | 218.39
311.32 K, Liquid | 219.47
311.72 K, Liquid | 219.98
313.21 K, Liquid | 221.03
313.59 K, Liquid | 221.54
315.09 K, Liquid | 222.83
315.46 K, Liquid | 223.3
316.96 K, Liquid | 224.55
317.31 K, Liquid | 224.93
318.82 K, Liquid | 226.26
319.16 K, Liquid | 226.53
320.67 K, Liquid | 228
320.99 K, Liquid | 228.31
322.52 K, Liquid | 229.67
322.82 K, Liquid | 229.96
324.36 K, Liquid | 231.42
324.65 K, Liquid | 231.73
326.19 K, Liquid | 233.09
326.46 K, Liquid | 233.41
328.01 K, Liquid | 234.81
328.27 K, Liquid | 235
329.82 K, Liquid | 236.6
330.07 K, Liquid | 236.82
331.62 K, Liquid | 238.27
331.85 K, Liquid | 238.73
333.42 K, Liquid | 239.94
333.63 K, Liquid | 240.3
335.2 K, Liquid | 241.58
335.4 K, Liquid | 241.97
336.98 K, Liquid | 243.24
337.16 K, Liquid | 243.65
338.75 K, Liquid | 244.92
338.92 K, Liquid | 245.3
340.51 K, Liquid | 246.6
340.66 K, Liquid | 246.9
342.27 K, Liquid | 248.02
342.4 K, Liquid | 248.57
344.02 K, Liquid | 249.71
344.13 K, Liquid | 250.3
345.76 K, Liquid | 251.26
345.85 K, Liquid | 252.05
347.5 K, Liquid | 252.83
347.57 K, Liquid | 253.58
349.23 K, Liquid | 254.25
349.27 K, Liquid | 255.13
350.95 K, Liquid | 255.52
350.97 K, Liquid | 256.62
352.66 K, Liquid | 258.17
352.67 K, Liquid | 256.89
354.35 K, Liquid | 259.96
354.38 K, Liquid | 259.82
356.02 K, Liquid | 261.44
356.07 K, Liquid | 261.38
357.7 K, Liquid | 262.72
357.76 K, Liquid | 262.85
359.36 K, Liquid | 264.29
359.43 K, Liquid | 264.36
361.02 K, Liquid | 265.62
361.1 K, Liquid | 265.85
362.67 K, Liquid | 266.89
362.77 K, Liquid | 267.17
364.32 K, Liquid | 268.43
364.43 K, Liquid | 268.78
365.96 K, Liquid | 269.86
366.08 K, Liquid | 270.13
367.59 K, Liquid | 270.92
367.73 K, Liquid | 271.33
369.23 K, Liquid | 271.93
369.37 K, Liquid | 272.76
370.86 K, Liquid | 272.95
371.01 K, Liquid | 274.05
372.64 K, Liquid | 275.14
374.27 K, Liquid | 276.38
375.89 K, Liquid | 277.43
377.52 K, Liquid | 278.66
379.14 K, Liquid | 279.32
380.76 K, Liquid | 280.36

CCCO [propan-1-ol]
Conditions | Molar enthalpy of transition or fusion [kcal/mol] | Triple point temperature [K]
[1] | – | 148.71
[2] | 1.291 | –

[3], Glass
Conditions | molar heat capacity [J/K/mol]
84.71 K | 55.24
86.52 K | 56.57
89.38 K | 58.64
92.19 K | 61.1
94.96 K | 66.41
